Measurements taken from PubChem BioAssay AID330 (DTP/NCI, 2004).
Several values for one entry are separate records, joined by “and”; a condition that tells them apart may be missing. Equal entries are not always repeated. Inconclusive results and toxic doses are left out.

Tested on: P388 leukemia ip, CD2F1 mice, survival T/C
Assay: NCI In Vivo Anticancer Drug Screen. Data for tumor model P388 Leukemia (intraperitoneal) in CD2F1 (CDF1) mice
Conditions: endpoint: median survival time, higher = longer survival
Outline: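 Mice carrying the transplanted tumor received test compound or vehicle. Survival was recorded in each group, and the value is the treated-group measurement divided by that of the vehicle-treated control group.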

[1] = dose: 12.5 mg/kg/injection, schedule: Q01DX009 (ip), vehicle: saline with Tween-80
[2] = dose: 25.0 mg/kg/injection, schedule: Q01DX009 (ip), vehicle: saline with Tween-80
[3] = dose: 50.0 mg/kg/injection, schedule: Q01DX009 (ip), vehicle: saline with Tween-80
[4] = dose: 60.0 mg/kg/injection, schedule: Q01DX005 (ip), vehicle: saline with Tween-80
[5] = dose: 120.0 mg/kg/injection, schedule: Q01DX005 (ip), vehicle: saline with Tween-80
[6] = dose: 240.0 mg/kg/injection, schedule: Q01DX005 (ip), vehicle: saline with Tween-80
[7] = dose: 60.0 mg/kg/injection, schedule: Q01DX005 (ip), vehicle: saline
[8] = dose: 120.0 mg/kg/injection, schedule: Q01DX005 (ip), vehicle: saline
[9] = dose: 200.0 mg/kg/injection, schedule: Q01DX009 (ip), vehicle: saline
[10] = dose: 12.5 mg/kg/injection, schedule: Q01DX009 (ip), vehicle: distilled water + Tween-80
[11] = dose: 25.0 mg/kg/injection, schedule: Q01DX009 (ip), vehicle: distilled water + Tween-80
[12] = dose: 50.0 mg/kg/injection, schedule: Q01DX005 (ip), vehicle: Klucel (hydroxypropylcellulose) (HPC)
[13] = dose: 100.0 mg/kg/injection, schedule: Q01DX005 (ip), vehicle: Klucel (hydroxypropylcellulose) (HPC)
[14] = dose: 200.0 mg/kg/injection, schedule: Q01DX005 (ip), vehicle: Klucel (hydroxypropylcellulose) (HPC)

CC1(C)C(O)C(C)(C)C1O (configuration not stated)
T/C [1]: 100 % of control
T/C [2]: 100 % of control
T/C [3]: 100 % of control

C=C(C)C1=CC(=O)C2CCCC(C)C2(C)C1OC(C)=O (configuration not stated)
T/C (dose: 75.0 mg/kg/injection, schedule: Q01DX001 (ip), vehicle: Klucel (hydroxypropylcellulose) (HPC)): 100 % of control
T/C (dose: 150.0 mg/kg/injection, schedule: Q01DX001 (ip), vehicle: Klucel (hydroxypropylcellulose) (HPC)): 106 % of control
T/C (dose: 300.0 mg/kg/injection, schedule: Q01DX001 (ip), vehicle: Klucel (hydroxypropylcellulose) (HPC)): 107 % of control

O=C(Nc1cccc2ccccc12)OCC1CC1
T/C (dose: 50.0 mg/kg/injection, schedule: Q04DX003 (ip), vehicle: saline with Tween-80): 98 % of control
T/C (dose: 100.0 mg/kg/injection, schedule: Q04DX003 (ip), vehicle: saline with Tween-80): 102 % of control
T/C (dose: 200.0 mg/kg/injection, schedule: Q04DX003 (ip), vehicle: saline with Tween-80): 100 % of control
T/C (dose: 400.0 mg/kg/injection, schedule: Q04DX003 (ip), vehicle: saline with Tween-80): 100 % of control

O=C(CN1C(=O)NC(c2ccccc2)(c2ccccc2)C1=O)NCCN1CCOCC1
T/C [4]: 97 % of control
T/C [5]: 96 % of control
T/C [6]: 97 % of control

CC(=O)/C(=C\c1ccccc1F)C(=O)CCN(C)C
T/C [7]: 109 % of control
T/C [8]: 118 % of control

Cc1cccc(Cl)c1NC(=O)C(C)C
T/C (dose: 100.0 mg/kg/injection, schedule: Q04DX003 (ip), vehicle: other): 104 % of control
T/C (dose: 200.0 mg/kg/injection, schedule: Q04DX003 (ip), vehicle: other): 109 % of control
T/C (dose: 400.0 mg/kg/injection, schedule: Q04DX003 (ip), vehicle: other): 90 % of control

Cn1c(=S)sc2ccc(S(=O)(=O)C(F)F)cc21
T/C (dose: 25.0 mg/kg/injection, schedule: Q01DX009 (ip), vehicle: Klucel (hydroxypropylcellulose) (HPC)): 103 % of control
T/C (dose: 50.0 mg/kg/injection, schedule: Q01DX009 (ip), vehicle: Klucel (hydroxypropylcellulose) (HPC)): 112 % of control
T/C (dose: 100.0 mg/kg/injection, schedule: Q01DX009 (ip), vehicle: Klucel (hydroxypropylcellulose) (HPC)): 107 % of control
T/C (dose: 200.0 mg/kg/injection, schedule: Q01DX009 (ip), vehicle: Klucel (hydroxypropylcellulose) (HPC)): 108 % of control

CC12CCC3c4ccc(O)cc4CCC3C1C/C(=C\C(=O)O)C2O (configuration not stated)
T/C (dose: 25.0 mg/kg/injection, schedule: Q04DX003 (ip), vehicle: Klucel (hydroxypropylcellulose) (HPC)): 116 % of control
T/C (dose: 50.0 mg/kg/injection, schedule: Q04DX003 (ip), vehicle: Klucel (hydroxypropylcellulose) (HPC)): 100 % of control and 104 % of control and 110 % of control
T/C (dose: 100.0 mg/kg/injection, schedule: Q04DX003 (ip), vehicle: Klucel (hydroxypropylcellulose) (HPC)): 100 % of control (2×) and 111 % of control
T/C (dose: 200.0 mg/kg/injection, schedule: Q04DX003 (ip), vehicle: Klucel (hydroxypropylcellulose) (HPC)): 99 % of control and 100 % of control and 121 % of control

COc1ccc2sc3c(C)ccc(NCCN(C)C)c3c(=O)c2c1
T/C [3]: 115 % of control

COC1NC(=O)N(C(C)C)C1(C)C (configuration not stated)
T/C (dose: 12.5 mg/kg/injection, schedule: Q01DX009 (ip), vehicle: saline): 101 % of control
T/C (dose: 25.0 mg/kg/injection, schedule: Q01DX009 (ip), vehicle: saline): 101 % of control
T/C (dose: 50.0 mg/kg/injection, schedule: Q01DX009 (ip), vehicle: saline): 100 % of control and 97 % of control
T/C [9]: 107 % of control

Cc1cc(C)c2ccc(NN=O)nc2n1
T/C (dose: 3.12 mg/kg/injection, schedule: Q01DX009 (ip), vehicle: water): 118 % of control
T/C (dose: 12.5 mg/kg/injection, schedule: Q01DX009 (ip), vehicle: water): 163 % of control
T/C (dose: 25.0 mg/kg/injection, schedule: Q01DX009 (ip), vehicle: water): 167 % of control and 169 % of control

O=C(/C=C/c1c[nH]c2ccccc12)c1cccc([N+](=O)[O-])c1
T/C [4]: 97 % of control
T/C [5]: 94 % of control
T/C [6]: 92 % of control

Cc1c2cnccc2c(C)c2c1c1ccccc1n2CC1CO1 (configuration not stated)
T/C (dose: 6.25 mg/kg/injection, schedule: Q01DX009 (ip), vehicle: saline with Tween-80): 155 % of control
T/C (dose: 8.0 mg/kg/injection, schedule: Q01DX009 (ip), vehicle: Klucel (hydroxypropylcellulose) (HPC)): 111 % of control
T/C (dose: 11.0 mg/kg/injection, schedule: Q01DX009 (ip), vehicle: saline with Tween-80): 158 % of control
T/C [1]: 152 % of control
T/C (dose: 16.0 mg/kg/injection, schedule: Q04DX003 (ip), vehicle: Klucel (hydroxypropylcellulose) (HPC)): 122 % of control
T/C (dose: 16.5 mg/kg/injection, schedule: Q01DX009 (ip), vehicle: saline with Tween-80): 171 % of control
T/C [2]: 160 % of control and 168 % of control
T/C [3]: 88 % of control
T/C (dose: 128.0 mg/kg/injection, schedule: Q04DX003 (ip), vehicle: Klucel (hydroxypropylcellulose) (HPC)): 159 % of control

CCC[CH2][Sn]1([CH2]CCC)[O]CC[S]1
T/C (dose: 3.12 mg/kg/injection, schedule: Q01DX009 (ip), vehicle: Klucel (hydroxypropylcellulose) (HPC)): 116 % of control

Cc1ccc(Cl)cc1S(=O)(=O)Cl
T/C [10]: 100 % of control
T/C [11]: 110 % of control

CCCCCCC[CH2][Sn]([Cl])([Cl])[Cl]
T/C (dose: 100.0 mg/kg/injection, schedule: Q04DX003 (ip), vehicle: saline): 98 % of control
T/C (dose: 200.0 mg/kg/injection, schedule: Q04DX003 (ip), vehicle: saline): 102 % of control
T/C (dose: 400.0 mg/kg/injection, schedule: Q04DX003 (ip), vehicle: saline): 104 % of control

OC1CCC2SC1CCC2O (configuration not stated)
T/C (dose: 50.0 mg/kg/injection, schedule: Q01DX009 (ip), vehicle: water): 95 % of control
T/C (dose: 100.0 mg/kg/injection, schedule: Q01DX009 (ip), vehicle: water): 102 % of control
T/C (dose: 200.0 mg/kg/injection, schedule: Q01DX009 (ip), vehicle: water): 108 % of control
T/C (dose: 400.0 mg/kg/injection, schedule: Q01DX009 (ip), vehicle: water): 100 % of control

CC(=O)N1CCc2cc([N+](=O)[O-])cc(Br)c21
T/C [10]: 107 % of control
T/C [11]: 98 % of control
T/C (dose: 50.0 mg/kg/injection, schedule: Q01DX009 (ip), vehicle: distilled water + Tween-80): 91 % of control
T/C (dose: 100.0 mg/kg/injection, schedule: Q01DX009 (ip), vehicle: distilled water + Tween-80): 98 % of control
T/C (dose: 200.0 mg/kg/injection, schedule: Q01DX009 (ip), vehicle: distilled water + Tween-80): 91 % of control

COc1cc(C2NC(C(=O)O)CS2)cc(OC)c1OC (configuration not stated)
T/C (dose: 50.0 mg/kg/injection, schedule: Q01DX009 (ip), vehicle: suspension in saline): 94 % of control
T/C (dose: 100.0 mg/kg/injection, schedule: Q01DX009 (ip), vehicle: suspension in saline): 97 % of control
T/C (dose: 200.0 mg/kg/injection, schedule: Q01DX009 (ip), vehicle: suspension in saline): 96 % of control

Cc1c(/C=C/C(=O)O)no[n+]1[O-]
T/C (dose: 50.0 mg/kg/injection, schedule: Q01DX005 (ip), vehicle: saline with Tween-80): 102 % of control
T/C (dose: 100.0 mg/kg/injection, schedule: Q01DX005 (ip), vehicle: saline with Tween-80): 98 % of control
T/C (dose: 200.0 mg/kg/injection, schedule: Q01DX005 (ip), vehicle: saline with Tween-80): 100 % of control

COc1ccc2c3c([nH]c2c1)[C@H]1C[C@H]2[C@H](C[C@@H](O)[C@H](OC)[C@H]2CO)CN1CC3
T/C [12]: 104 % of control
T/C [13]: 95 % of control
T/C [14]: 90 % of control

Cc1cc(O)c(Cl)cc1Cl
T/C (dose: 100.0 mg/kg/injection, schedule: Q01DX009 (ip), vehicle: saline): 100 % of control
T/C [9]: 99 % of control
T/C (dose: 400.0 mg/kg/injection, schedule: Q01DX009 (ip), vehicle: saline): 97 % of control

c1ccc(CCNCCN2CCNCC2)cc1
T/C [7]: 108 % of control
T/C [8]: 99 % of control

COC(=O)C1=CSCCC1=O
T/C [12]: 105 % of control
T/C [13]: 106 % of control
T/C [14]: 117 % of control

COc1cc2c(c(OC)c1OC)-c1ccc(SC)c(=O)cc1[C@@H](NC(=O)NCCCl)CC2
T/C (dose: 1.5 mg/kg/injection, schedule: Q01DX009 (ip), vehicle: water): 110 % of control
T/C (dose: 6.0 mg/kg/injection, schedule: Q01DX009 (ip), vehicle: water): 150 % of control
T/C (dose: 12.0 mg/kg/injection, schedule: Q01DX009 (ip), vehicle: water): 155 % of control
T/C (dose: 13.5 mg/kg/injection, schedule: Q01DX009 (ip), vehicle: water): 150 % of control and 163 % of control
